Measured values from patent publication US10073103B1, “Rapid measurement of total vitamin D in blood” (Theranos, Inc., priority 2013, dated 2018).
Read-outs that look alike come from different tables or passages of the source.

Legend:
[1] = tested on: anti-25-hydroxy vitamin D antibodies (Ab5H10 and Ab2F4); experiment: Cross-reactivity test of the present competitive chemiluminescent ELISA in low BSA buffer; assay type: binding, sheep; details: for Cross reactivity as potentially interfering compound (in words): final assay conditions
Procedure: The liquid phase of the assay reaction included the sample (mixed with the sample diluent) and included the anti-vitamin-D antibodies and the alkaline phosphatase (AP) conjugate. As discussed below, in many cases mixtures of two types of anti-vitamin D antibodies were used. For example, in many cases, the anti-vitamin-D antibodies Ab5H10 and Ab2F4 were mixed into the diluted sample (final concentrations 10 ng/mL Ab5H10 and 5 ng/mL Ab2F4), and then the AP conjugate was mixed into the solution that included the sample, the sample diluent, and the anti-vitamin-D antibodies. This liquid mixture was incubated with the capture surface (anti-sheep antibody bound to UltraAvidin™-coated polystyrene).
Vitamin D assay methods using pepsin degradation of vitamin D binding proteins at low pH were then further optimized in subsequent experiments, including experiments performed at an operating temperature of 34° C. […] This sample treatment and assay protocol consisted of a 1:5 dilution of the sample into 10 mg/mL pepsin in 100 mM citrate buffer pH 2.6, followed by a 1:8 dilution into 50 mM TRIS pH 8.0 which brought the pH of the diluted sample to 8.0 and neutralized the pepsin. Then the sheep anti-25-hydroxy vitamin D antibody was added and incubated with the sample for 10 minutes. Following addition of the anti-25-hydroxy vitamin D antibody, the 25-hydroxy vitamin D-AP conjugate was added, resulting in a final sample dilution of 1:50. The mixture was then incubated on the anti-sheep capture surface for 5 minutes, followed by a wash and 5 minute substrate incubation.
1. Sample was diluted 1:5 into 100 mM Citrate buffer pH 2.6 containing 10 mg/mL pepsin and mixed (final pH 3.9) for 5 minutes at 34° C.
2. Treated sample was diluted a further 1:8 into 50 mM TRIS buffer pH 8.0 to permanently deactivate the pepsin, and anti-25-hydroxy vitamin D antibody in a blocking buffer was spiked in and mixed. This mixture was incubated for 10 minutes.
3. The AP-labeled 25-hydroxy vitamin D was added to the sample mixture and then transferred to the capture surface (biotinylated anti-sheep secondary antibody bound to UltraAvidin™-coated polystyrene) and incubated for 5 minutes.
4. The surface was washed six times (1 minute for each wash cycle) with 0.05% Tween20® in 50 mM TBS containing 0.05% sodium azide at pH8.0.
5. The washed capture surface was exposed to enzyme substrate for five minutes and the chemiluminescence was read in an automated luminometer.
Tests were performed in order to determine whether non-target compounds could interfere with the assay results. Such tests, termed “cross-reactivity tests”, measured the change in measured 25-hydroxy vitamin D due to the presence of a non-target substance by comparing the value of 25-hydroxy vitamin D measured by the present methods where a potentially interfering compound was in the sample, as compared to the value of 25-hydroxy vitamin D measured by the present methods in the absence of the potentially interfering compound. Cross reactivity testing was conducted using the final assay conditions in a low BSA buffer matrix (0.03% BSA in TBS). Cross-reactivity was reported in these assays as % recovery=100×([measured vitamin D])/([nominal vitamin D]); [measured vitamin D] is the 25-hydroxy vitamin D concentration measured in the presence of the potentially interfering compound, and [nominal vitamin D] is the 25-hydroxy vitamin D concentration measured in the absence of the potentially interfering compound. […] (Note that an interfering compound would displace labeled 25-hydroxy vitamin D in the competition assays disclosed herein, so that the interfering compound would cause an apparent (erroneous) increase in the measured 25-hydroxy vitamin D.) For comparison, values for 25-hydroxy vitamin D3 (a direct target of the assay, and not a cross-reactant) are presented in the table.

[2] = tested on: antibody to 25-hydroxy vitamin D; details: as stated in the manufacturer's product insert; cited from earlier work
[3] = tested on: antivitamin-D coated microparticles; parameters: concentration or dose not given beside the values; details: as stated in the manufacturer's product insert; cited from earlier work
[4] = as stated in the manufacturer's product insert; cited from earlier work
[5] = as stated in the manufacturer's product insert, b197 cites literature, cited from earlier work
[6] = Reagent stability: lyophilized pepsin versus frozen aliquots, compared by vitamin D results on clinical samples; details: 10 mg/mL, reconstituted with 100 mM citrate buffer pH 2.6
Procedure: The stability of pepsin in frozen aliquots of aqueous pepsin solution and of dry, lyophilized pepsin (e.g., a lyophilized powder formed from an aqueous pepsin solution) was measured. Pepsin was lyophilized in containers suitable for use when reconstituted, e.g., in an automated assay device. The pepsin was provided in a solution at a concentration of 10 mg/mL and was lyophilized into the containers to obtain the final reconstituted amount and concentration equal to the concentration and amounts used in the assay methods disclosed herein. The containers of lyophilized reagent were placed into cartridges (arrays including several such containers) and the reagent was reconstituted with 100 mM citrate buffer (pH 2.6). Clinical samples were used for comparison, and the vitamin D results were calculated for both conditions based on the standard curve obtained for frozen pepsin/buffer aliquots.

[7] = test substance 50 ng/mL, OORL = out of range - low, below the detection limit
[8] = test substance 50 ng/mL, low BSA buffer
[9] = test substance 100 ng/mL, OORL = out of range - low, below the detection limit
[10] = test substance 100 ng/mL, low BSA buffer
[11] = test substance 150 ng/mL, OORL = out of range - low, below the detection limit
[12] = test substance 150 ng/mL, low BSA buffer (0.03% BSA in TBS)

With `C=C1CC[C@H](O)C/C1=C/C=C1\CCC[C@]2(C)[C@@H]([C@H](C)CCCC(C)C)CC[C@@H]12` [Cholecalciferol (Vitamin D3), cholecalciferol] the “Vitamin D metabolite cross reactivity, Present Methods” value [1] was <0.01%, the “Cross reactivity as potentially interfering compound (in words)” value (shortened to “Cross reactivity … (in words)”) ([1]; low BSA buffer) was “No cross reactivity” and the “Conc., ng/mL Mean (measured 25-hydroxy vitamin D)” value (“Conc., ng/mL Mean” below) [1, 7] was “OORL”. For the same compound, the “Signal, RLU Mean” value [1, 8] was 31046 RLU, the “Conc., ng/mL Mean” value [1, 9] was “OORL” and the “Signal, RLU Mean” value [1, 10] was 30864 RLU. For the same compound, the “Conc., ng/mL Mean” value [1, 11] was “OORL”, the “Signal, RLU Mean” value [1, 12] was 31607 RLU and the “Vitamin D metabolite cross reactivity, DiaSorin 25-Hydroxyvitamin D 125I RIA” value [2] was 0.8%. For the same compound, the “Vitamin D metabolite cross reactivity, DiaSorin Liaison 25 OH Vitamin D TOTAL” value [3] was <1%, the “Vitamin D metabolite cross reactivity, Roche Vitamin D3 (25-OH)” value [4] was <1% and the “Vitamin D metabolite cross reactivity, IDS ELISA kit” value [5] was <0.01%.

With `C=C1CC[C@H](O)C/C1=C/C=C1\CCC[C@]2(C)[C@@H]([C@H](C)CCCC(C)(C)O)CC[C@@H]12` [25-Hydroxy vitamin D3, 25-hydroxy vitamin D3] the “Vitamin D metabolite cross reactivity, Present Methods” value [1] was 100%, the “% Recovery” value ([1]; test substance 10 ng/mL) was 110% and the “Conc., ng/mL Mean” value ([1]; test substance 10 ng/mL) was 11.0 ng/mL. The “Signal, RLU Mean” value ([1]; test substance 10 ng/mL, low BSA buffer) was 20071 RLU, the “% Recovery” value ([1]; test substance 25 ng/mL) was 83% and the “Conc., ng/mL Mean” value ([1]; test substance 25 ng/mL) was 20.8 ng/mL. For the same compound, the “Signal, RLU Mean” value ([1]; test substance 25 ng/mL, low BSA buffer) was 14076 RLU, the “% Recovery” value ([1]; test substance 50 ng/mL) was 111% and the “Conc., ng/mL Mean” value [1, 7] was 55.5 ng/mL. The “Signal, RLU Mean” value [1, 8] was 4044 RLU, the “% Recovery” value ([1]; test substance 100 ng/mL) was 77% and the “Conc., ng/mL Mean” value [1, 9] was 76.5 ng/mL. For the same compound, the “Signal, RLU Mean” value [1, 10] was 2941 RLU, the “% Recovery” value ([1]; test substance 150 ng/mL) was 70% and the “Conc., ng/mL Mean” value [1, 11] was 104.5 ng/mL. For the same compound, the “Signal, RLU Mean” value [1, 12] was 2432 RLU, the “Vitamin D metabolite cross reactivity, DiaSorin 25-Hydroxyvitamin D 125I RIA” value [2] was 100% and the “Vitamin D metabolite cross reactivity, DiaSorin Liaison 25 OH Vitamin D TOTAL” value [3] was 100%. For the same compound, the “Vitamin D metabolite cross reactivity, Roche Vitamin D3 (25-OH)” value [4] was 100% and the “Vitamin D metabolite cross reactivity, IDS ELISA kit” value [5] was 100%.

With `C=C1CC[C@H](O)C/C1=C/C=C1\CCC[C@]2(C)[C@@H]([C@H](C)/C=C/[C@H](C)C(C)C)CC[C@@H]12` [Ergocalciferol (Vitamin D2), ergocalciferol] the “Vitamin D metabolite cross reactivity, Present Methods” value [1] was <0.01%, the “Cross reactivity … (in words)” value ([1]; low BSA buffer) was “No cross reactivity” and the “Conc., ng/mL Mean” value [1, 7] was “OORL”. The “Signal, RLU Mean” value [1, 8] was 30040 RLU, the “Conc., ng/mL Mean” value [1, 9] was “OORL” and the “Signal, RLU Mean” value [1, 10] was 27040 RLU. For the same compound, the “Conc., ng/mL Mean” value [1, 11] was “OORL”, the “Signal, RLU Mean” value [1, 12] was 30935 RLU and the “Vitamin D metabolite cross reactivity, DiaSorin 25-Hydroxyvitamin D 125I RIA” value [2] was 0.8%. For the same compound, the “Vitamin D metabolite cross reactivity, DiaSorin Liaison 25 OH Vitamin D TOTAL” value [3] was <1%, the “Vitamin D metabolite cross reactivity, Roche Vitamin D3 (25-OH)” value [4] was <1% and the “Vitamin D metabolite cross reactivity, IDS ELISA kit” value [5] was <0.3%.

For `C=C1/C(=C\C=C2/CCC[C@]3(C)[C@@H]([C@H](C)CCCC(C)(C)O)CC[C@@H]23)C[C@@H](O)C[C@@H]1O` [1α,25-Dihydroxy Vitamin D3, 1α,25-dihydroxy vitamin D3], the “Vitamin D metabolite cross reactivity, Present Methods” value [1] was 70%, the “Cross reactivity … (in words)” value ([1]; low BSA buffer) was “Some cross reactivity” and the “% Recovery” value ([1]; test substance 50 ng/mL) was 73%. For the same compound, the “Conc., ng/mL Mean” value [1, 7] was 36.5 ng/mL, the “Signal, RLU Mean” value [1, 8] was 7804 RLU and the “% Recovery” value ([1]; test substance 100 ng/mL) was 61%. The “Conc., ng/mL Mean” value [1, 9] was 60.6 ng/mL, the “Signal, RLU Mean” value [1, 10] was 3642 RLU and the “% Recovery” value ([1]; test substance 150 ng/mL) was 71%. For the same compound, the “Conc., ng/mL Mean” value [1, 11] was 107.1 ng/mL, the “Signal, RLU Mean” value [1, 12] was 2352 RLU and the “Vitamin D metabolite cross reactivity, DiaSorin 25-Hydroxyvitamin D 125I RIA” value [2] was 11%. For the same compound, the “Vitamin D metabolite cross reactivity, DiaSorin Liaison 25 OH Vitamin D TOTAL” value [3] was 17% and the “Vitamin D metabolite cross reactivity, Roche Vitamin D3 (25-OH)” value [4] was “up to 100%”.

With “pepsin: porcine gastric mucosa pepsin (Sigma catalog # P7000)” the “Stability: results with lyophilized reagent versus (thawed) frozen aliquot” value [6] was “no significant differences”.

For `C=C1/C(=C\C=C2/CCC[C@]3(C)[C@@H]([C@H](C)/C=C/[C@H](C)C(C)(C)O)CC[C@@H]23)C[C@@H](O)C[C@@H]1O` [1.25(OH)2 D2, 1,25-dihydroxy vitamin D2], the “Vitamin D metabolite cross reactivity, DiaSorin 25-Hydroxyvitamin D 125I RIA” value [2] is listed as 11% and the “Vitamin D metabolite cross reactivity, DiaSorin Liaison 25 OH Vitamin D TOTAL” value [3] is listed as 40%.

In the case of `C=C1CCC(O)C/C1=C\C=C1\CCCC2(C)C1CCC2C(C)CCC(O)C(C)(C)O` (stereo not drawn) [24,25-Dihydroxy Vitamin D3, 24,25-dihydroxy vitamin D3], the “Cross reactivity … (in words)” value ([1]; low BSA buffer) is reported as “No cross reactivity”, the “Conc., ng/mL Mean” value [1, 7] is reported as “OORL” and the “Signal, RLU Mean” value [1, 8] is reported as 25059 RLU. For the same compound, the “Conc., ng/mL Mean” value [1, 9] was “OORL”, the “Signal, RLU Mean” value [1, 10] was 23735 RLU and the “Conc., ng/mL Mean” value [1, 11] was “OORL”. For the same compound, the “Signal, RLU Mean” value [1, 12] was 22992 RLU and the “Vitamin D metabolite cross reactivity, IDS ELISA kit” value [5] was >100%.

In the case of `C=C1CC[C@H](O)C/C1=C/C=C1\CCC[C@]2(C)[C@@H]([C@H](C)/C=C/[C@H](C)C(C)(C)O)CC[C@@H]12` [25(OH) D2, 25-hydroxy vitamin D2], the “Vitamin D metabolite cross reactivity, Present Methods” value [1] is given as 110%, the “Vitamin D metabolite cross reactivity, DiaSorin 25-Hydroxyvitamin D 125I RIA” value [2] is given as 100% and the “Vitamin D metabolite cross reactivity, DiaSorin Liaison 25 OH Vitamin D TOTAL” value [3] is given as 104%. For the same compound, the “Vitamin D metabolite cross reactivity, Roche Vitamin D3 (25-OH)” value [4] was <10%, the “Vitamin D metabolite cross reactivity, IDS ELISA kit” value [5] was 75% and the “Vitamin D metabolite cross reactivity, IDS ELISA kit” value ([5]; listed as 25-hydroxy Vitamin D2) was 75%.
